# Assay results published in ChEMBL document CHEMBL4765228, “Indole-like Trk receptor antagonists” (Eur J Med Chem, 2016).
# Legend:
# [1] = molecular target: Insulin-like growth factor 1 receptor (Homo sapiens) (UniProt P08069); experiment: Inhibition of human IGF1R assessed as residual activity at 1 uM relative to control
# [2] = molecular target: SRSF protein kinase 1 (Homo sapiens) (UniProt Q96SB4); experiment: Inhibition of human SRPK1 assessed as residual activity at 1 uM relative to control
# SRSF protein kinase 1 (Homo sapiens), sequence (Q96SB4 whole entry): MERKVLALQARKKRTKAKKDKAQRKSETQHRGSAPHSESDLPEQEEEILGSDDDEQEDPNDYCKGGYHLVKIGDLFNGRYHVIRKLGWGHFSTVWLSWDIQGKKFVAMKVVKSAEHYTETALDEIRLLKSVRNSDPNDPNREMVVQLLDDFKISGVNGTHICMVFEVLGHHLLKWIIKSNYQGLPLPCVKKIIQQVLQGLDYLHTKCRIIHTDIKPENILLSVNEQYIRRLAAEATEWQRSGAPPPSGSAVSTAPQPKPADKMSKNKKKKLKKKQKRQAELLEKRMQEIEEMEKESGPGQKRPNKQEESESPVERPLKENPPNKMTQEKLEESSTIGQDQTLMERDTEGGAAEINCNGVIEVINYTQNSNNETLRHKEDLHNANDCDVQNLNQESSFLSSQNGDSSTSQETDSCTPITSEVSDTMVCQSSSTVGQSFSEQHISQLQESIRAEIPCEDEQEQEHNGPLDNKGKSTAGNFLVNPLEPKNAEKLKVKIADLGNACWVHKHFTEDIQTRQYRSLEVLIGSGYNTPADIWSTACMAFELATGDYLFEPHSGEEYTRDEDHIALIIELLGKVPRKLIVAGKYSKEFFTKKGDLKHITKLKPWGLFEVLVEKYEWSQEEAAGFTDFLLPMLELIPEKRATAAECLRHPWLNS
# [3] = molecular target: Rho-associated protein kinase 2 (Homo sapiens) (UniProt O75116); experiment: Inhibition of human ROCK2 assessed as residual activity at 0.1 uM relative to control
# [4] = molecular target: T1, Serine/threonine-protein kinase 3 (Homo sapiens) (UniProt Q13188); experiment: Inhibition of human MST2 assessed as residual activity at 1 uM relative to control
# T1 sequence (whole entry): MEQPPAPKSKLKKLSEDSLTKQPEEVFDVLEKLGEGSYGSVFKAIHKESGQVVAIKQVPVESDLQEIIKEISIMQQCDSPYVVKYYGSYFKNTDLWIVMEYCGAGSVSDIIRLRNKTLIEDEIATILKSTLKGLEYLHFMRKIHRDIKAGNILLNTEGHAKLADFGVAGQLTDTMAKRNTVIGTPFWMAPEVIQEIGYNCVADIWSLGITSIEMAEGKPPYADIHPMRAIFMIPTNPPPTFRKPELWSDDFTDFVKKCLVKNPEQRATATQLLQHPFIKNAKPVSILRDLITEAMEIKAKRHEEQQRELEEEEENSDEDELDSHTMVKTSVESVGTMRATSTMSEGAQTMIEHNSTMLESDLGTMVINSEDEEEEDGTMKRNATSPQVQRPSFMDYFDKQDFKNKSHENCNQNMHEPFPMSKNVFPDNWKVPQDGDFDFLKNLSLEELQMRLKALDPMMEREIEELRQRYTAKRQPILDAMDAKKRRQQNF
# [5] = molecular target: Aurora kinase B (Homo sapiens) (UniProt Q96GD4); experiment: Inhibition of human Aurora-B assessed as residual activity at 1 uM relative to control
# Aurora kinase B (Homo sapiens), sequence (Q96GD4 whole entry): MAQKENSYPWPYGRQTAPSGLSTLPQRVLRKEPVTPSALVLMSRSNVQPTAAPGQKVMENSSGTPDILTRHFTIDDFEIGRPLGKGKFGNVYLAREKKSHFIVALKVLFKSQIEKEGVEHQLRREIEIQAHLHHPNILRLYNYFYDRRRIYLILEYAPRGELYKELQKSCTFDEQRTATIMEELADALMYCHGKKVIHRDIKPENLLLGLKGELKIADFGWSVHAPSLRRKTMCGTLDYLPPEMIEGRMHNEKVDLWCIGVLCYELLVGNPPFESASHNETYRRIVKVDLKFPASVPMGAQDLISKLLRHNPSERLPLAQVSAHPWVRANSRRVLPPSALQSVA
# [6] = molecular target: Tyrosine-protein kinase JAK2 (Homo sapiens) (UniProt O60674); experiment: Inhibition of human JAK2 assessed as residual activity at 0.1 uM relative to control
# Tyrosine-protein kinase JAK2 (Homo sapiens), sequence (O60674 whole entry): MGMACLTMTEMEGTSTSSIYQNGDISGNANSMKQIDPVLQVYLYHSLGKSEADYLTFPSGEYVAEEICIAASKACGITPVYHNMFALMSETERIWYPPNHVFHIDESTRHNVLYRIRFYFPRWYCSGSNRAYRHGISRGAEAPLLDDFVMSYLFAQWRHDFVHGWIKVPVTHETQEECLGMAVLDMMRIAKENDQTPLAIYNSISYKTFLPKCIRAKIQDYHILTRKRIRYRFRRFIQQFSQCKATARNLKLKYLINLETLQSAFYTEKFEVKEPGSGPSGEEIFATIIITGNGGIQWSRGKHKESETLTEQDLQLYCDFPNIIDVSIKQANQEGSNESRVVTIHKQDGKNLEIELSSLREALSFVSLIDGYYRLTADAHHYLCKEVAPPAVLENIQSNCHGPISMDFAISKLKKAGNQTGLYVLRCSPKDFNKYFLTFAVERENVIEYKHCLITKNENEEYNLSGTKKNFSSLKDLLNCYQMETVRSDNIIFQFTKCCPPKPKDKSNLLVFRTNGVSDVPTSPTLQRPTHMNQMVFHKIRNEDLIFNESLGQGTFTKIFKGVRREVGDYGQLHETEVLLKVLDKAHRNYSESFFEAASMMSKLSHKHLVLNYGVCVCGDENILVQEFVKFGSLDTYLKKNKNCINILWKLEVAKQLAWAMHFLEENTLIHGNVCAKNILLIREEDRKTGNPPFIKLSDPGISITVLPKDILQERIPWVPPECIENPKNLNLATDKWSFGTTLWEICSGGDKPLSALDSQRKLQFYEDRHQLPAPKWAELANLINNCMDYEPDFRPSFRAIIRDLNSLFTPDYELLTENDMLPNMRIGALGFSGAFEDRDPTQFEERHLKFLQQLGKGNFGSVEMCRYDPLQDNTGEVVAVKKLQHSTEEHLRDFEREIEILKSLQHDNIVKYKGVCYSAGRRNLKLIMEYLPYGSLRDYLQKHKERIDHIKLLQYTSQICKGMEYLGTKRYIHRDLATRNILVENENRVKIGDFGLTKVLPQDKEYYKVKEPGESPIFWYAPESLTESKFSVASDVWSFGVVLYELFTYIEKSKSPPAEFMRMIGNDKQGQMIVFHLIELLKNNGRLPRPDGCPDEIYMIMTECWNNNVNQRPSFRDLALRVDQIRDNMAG
# [7] = molecular target: Serine/threonine-protein kinase Nek6 (Homo sapiens) (UniProt Q9HC98); experiment: Inhibition of human NEK6 assessed as residual activity at 0.1 uM relative to control
# Serine/threonine-protein kinase Nek6 (Homo sapiens), sequence (Q9HC98 whole entry): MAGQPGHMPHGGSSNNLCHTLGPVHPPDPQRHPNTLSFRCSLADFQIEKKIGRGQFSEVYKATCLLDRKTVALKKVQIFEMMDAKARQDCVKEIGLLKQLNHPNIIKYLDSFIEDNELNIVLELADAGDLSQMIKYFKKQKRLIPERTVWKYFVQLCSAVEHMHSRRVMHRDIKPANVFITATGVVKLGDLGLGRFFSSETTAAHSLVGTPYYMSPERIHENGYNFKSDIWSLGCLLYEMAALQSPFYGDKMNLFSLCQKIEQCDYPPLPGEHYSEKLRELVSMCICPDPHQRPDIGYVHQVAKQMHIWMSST
# [8] = molecular target: Rho-associated protein kinase 2 (Homo sapiens) (UniProt O75116); experiment: Inhibition of human ROCK2 assessed as residual activity at 1 uM relative to control
# [9] = molecular target: Mitogen-activated protein kinase kinase kinase 11 (Homo sapiens) (UniProt Q16584); experiment: Inhibition of human MAP3K11 assessed as residual activity at 1 uM relative to control
# Mitogen-activated protein kinase kinase kinase 11 (Homo sapiens), sequence (Q16584 whole entry, looked up): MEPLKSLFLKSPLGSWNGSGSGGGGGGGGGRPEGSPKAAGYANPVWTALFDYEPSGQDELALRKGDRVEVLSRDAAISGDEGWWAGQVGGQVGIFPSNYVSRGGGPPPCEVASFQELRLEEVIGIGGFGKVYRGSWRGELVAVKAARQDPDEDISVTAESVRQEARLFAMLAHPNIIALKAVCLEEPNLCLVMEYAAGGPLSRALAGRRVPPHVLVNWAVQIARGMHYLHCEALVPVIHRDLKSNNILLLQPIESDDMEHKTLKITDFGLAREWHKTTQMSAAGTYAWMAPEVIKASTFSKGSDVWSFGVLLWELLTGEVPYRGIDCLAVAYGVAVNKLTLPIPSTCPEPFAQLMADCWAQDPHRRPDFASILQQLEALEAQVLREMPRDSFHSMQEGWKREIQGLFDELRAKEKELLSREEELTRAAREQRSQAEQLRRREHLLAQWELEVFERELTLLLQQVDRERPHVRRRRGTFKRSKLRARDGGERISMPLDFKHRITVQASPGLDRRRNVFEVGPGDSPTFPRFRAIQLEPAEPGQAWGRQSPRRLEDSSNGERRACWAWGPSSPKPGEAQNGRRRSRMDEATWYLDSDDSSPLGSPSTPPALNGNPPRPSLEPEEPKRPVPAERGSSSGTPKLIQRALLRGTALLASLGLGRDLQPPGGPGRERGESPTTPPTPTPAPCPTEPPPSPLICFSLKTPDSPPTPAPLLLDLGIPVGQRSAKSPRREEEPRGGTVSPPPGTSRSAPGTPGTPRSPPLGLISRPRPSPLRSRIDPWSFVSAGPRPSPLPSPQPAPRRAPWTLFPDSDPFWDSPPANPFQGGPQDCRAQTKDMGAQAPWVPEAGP
# [10] = molecular target: Casein kinase II subunit alpha (Homo sapiens) (UniProt P68400); experiment: Inhibition of human CK2alpha1 assessed as residual activity at 1 uM relative to control
# Casein kinase II subunit alpha (Homo sapiens), sequence (P68400 whole entry, looked up): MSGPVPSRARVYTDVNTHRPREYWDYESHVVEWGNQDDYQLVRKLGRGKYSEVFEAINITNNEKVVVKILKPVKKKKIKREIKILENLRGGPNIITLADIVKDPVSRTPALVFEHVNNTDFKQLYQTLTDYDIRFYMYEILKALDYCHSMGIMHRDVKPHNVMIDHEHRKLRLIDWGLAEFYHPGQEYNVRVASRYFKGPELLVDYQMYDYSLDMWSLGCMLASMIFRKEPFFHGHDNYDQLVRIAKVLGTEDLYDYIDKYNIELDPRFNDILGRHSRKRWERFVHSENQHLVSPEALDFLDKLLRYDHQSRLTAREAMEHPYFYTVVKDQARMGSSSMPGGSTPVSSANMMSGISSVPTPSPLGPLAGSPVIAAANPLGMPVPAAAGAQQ
# [11] = molecular target: T2, Serine/threonine-protein kinase D1 (Homo sapiens) (UniProt Q15139); experiment: Inhibition of human PKCmu assessed as residual activity at 1 uM relative to control
# T2 sequence (whole entry): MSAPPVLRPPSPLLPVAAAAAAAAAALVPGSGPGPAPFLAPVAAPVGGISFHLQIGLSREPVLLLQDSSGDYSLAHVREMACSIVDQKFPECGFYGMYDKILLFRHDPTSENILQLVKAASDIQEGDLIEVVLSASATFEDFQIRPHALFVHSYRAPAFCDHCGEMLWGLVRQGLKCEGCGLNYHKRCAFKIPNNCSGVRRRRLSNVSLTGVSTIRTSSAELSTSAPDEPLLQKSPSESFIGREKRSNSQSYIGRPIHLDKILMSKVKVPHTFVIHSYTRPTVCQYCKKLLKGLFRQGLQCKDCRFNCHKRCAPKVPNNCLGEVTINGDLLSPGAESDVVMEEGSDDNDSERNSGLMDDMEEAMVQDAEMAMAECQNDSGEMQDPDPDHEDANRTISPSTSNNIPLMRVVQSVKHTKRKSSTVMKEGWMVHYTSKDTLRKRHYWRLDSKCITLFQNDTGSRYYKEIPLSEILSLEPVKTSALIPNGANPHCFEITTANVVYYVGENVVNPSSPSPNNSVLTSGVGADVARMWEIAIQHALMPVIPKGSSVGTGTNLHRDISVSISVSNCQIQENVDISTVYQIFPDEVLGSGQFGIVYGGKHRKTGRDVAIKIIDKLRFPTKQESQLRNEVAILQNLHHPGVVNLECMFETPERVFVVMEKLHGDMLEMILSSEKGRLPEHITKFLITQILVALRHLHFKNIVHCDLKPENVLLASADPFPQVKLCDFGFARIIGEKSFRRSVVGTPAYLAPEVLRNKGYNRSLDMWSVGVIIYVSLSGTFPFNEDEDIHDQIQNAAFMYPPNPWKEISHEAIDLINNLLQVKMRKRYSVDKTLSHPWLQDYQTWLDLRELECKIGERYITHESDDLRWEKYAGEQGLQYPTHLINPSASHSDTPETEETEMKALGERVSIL
# [12] = molecular target: T3, Serine/threonine-protein kinase TBK1 (Homo sapiens) (UniProt Q9UHD2); experiment: Inhibition of human TBK1 assessed as residual activity at 1 uM relative to control
# T3 sequence (whole entry): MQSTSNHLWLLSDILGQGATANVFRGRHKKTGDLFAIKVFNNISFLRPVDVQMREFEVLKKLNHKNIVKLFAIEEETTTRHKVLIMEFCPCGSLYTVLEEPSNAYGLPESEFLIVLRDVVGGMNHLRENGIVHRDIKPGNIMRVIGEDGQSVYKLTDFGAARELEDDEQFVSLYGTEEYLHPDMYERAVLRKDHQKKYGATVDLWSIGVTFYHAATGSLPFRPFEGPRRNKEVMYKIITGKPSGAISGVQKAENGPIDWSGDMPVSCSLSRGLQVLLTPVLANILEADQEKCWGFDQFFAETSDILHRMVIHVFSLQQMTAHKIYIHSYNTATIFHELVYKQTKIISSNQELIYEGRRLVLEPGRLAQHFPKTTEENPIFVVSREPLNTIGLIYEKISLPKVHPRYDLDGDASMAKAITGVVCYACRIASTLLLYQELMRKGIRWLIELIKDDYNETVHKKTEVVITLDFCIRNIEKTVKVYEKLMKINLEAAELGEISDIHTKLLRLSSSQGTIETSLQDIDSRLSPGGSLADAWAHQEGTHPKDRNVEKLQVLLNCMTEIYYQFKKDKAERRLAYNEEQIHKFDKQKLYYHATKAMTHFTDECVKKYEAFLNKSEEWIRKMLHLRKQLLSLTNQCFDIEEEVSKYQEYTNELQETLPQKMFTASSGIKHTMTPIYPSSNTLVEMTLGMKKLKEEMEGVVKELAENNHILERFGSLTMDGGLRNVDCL
# [13] = molecular target: Proto-oncogene tyrosine-protein kinase Src (Homo sapiens) (UniProt P12931); experiment: Inhibition of human GST-HIS-tagged SRC assessed as residual activity at 0.1 uM relative to control
# Proto-oncogene tyrosine-protein kinase Src (Homo sapiens), sequence (P12931 2-536 limits assumed): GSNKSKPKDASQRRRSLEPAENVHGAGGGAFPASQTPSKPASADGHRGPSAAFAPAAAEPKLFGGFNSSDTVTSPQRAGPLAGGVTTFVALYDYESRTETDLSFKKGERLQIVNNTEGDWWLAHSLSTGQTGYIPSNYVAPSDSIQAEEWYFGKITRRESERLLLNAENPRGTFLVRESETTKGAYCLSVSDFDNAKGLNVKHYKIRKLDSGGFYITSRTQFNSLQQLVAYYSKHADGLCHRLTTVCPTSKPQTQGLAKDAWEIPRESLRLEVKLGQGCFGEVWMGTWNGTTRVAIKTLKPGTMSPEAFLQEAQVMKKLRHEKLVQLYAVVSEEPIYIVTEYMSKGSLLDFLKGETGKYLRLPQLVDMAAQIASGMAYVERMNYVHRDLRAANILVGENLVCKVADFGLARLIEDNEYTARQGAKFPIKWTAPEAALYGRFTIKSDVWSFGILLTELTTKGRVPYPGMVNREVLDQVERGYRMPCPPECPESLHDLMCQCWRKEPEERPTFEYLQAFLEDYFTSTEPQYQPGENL
# [14] = molecular target: Tyrosine-protein kinase BTK (Homo sapiens) (UniProt Q06187); experiment: Inhibition of human BTK assessed as residual activity at 1 uM relative to control
# Tyrosine-protein kinase BTK (Homo sapiens), sequence (Q06187 whole entry): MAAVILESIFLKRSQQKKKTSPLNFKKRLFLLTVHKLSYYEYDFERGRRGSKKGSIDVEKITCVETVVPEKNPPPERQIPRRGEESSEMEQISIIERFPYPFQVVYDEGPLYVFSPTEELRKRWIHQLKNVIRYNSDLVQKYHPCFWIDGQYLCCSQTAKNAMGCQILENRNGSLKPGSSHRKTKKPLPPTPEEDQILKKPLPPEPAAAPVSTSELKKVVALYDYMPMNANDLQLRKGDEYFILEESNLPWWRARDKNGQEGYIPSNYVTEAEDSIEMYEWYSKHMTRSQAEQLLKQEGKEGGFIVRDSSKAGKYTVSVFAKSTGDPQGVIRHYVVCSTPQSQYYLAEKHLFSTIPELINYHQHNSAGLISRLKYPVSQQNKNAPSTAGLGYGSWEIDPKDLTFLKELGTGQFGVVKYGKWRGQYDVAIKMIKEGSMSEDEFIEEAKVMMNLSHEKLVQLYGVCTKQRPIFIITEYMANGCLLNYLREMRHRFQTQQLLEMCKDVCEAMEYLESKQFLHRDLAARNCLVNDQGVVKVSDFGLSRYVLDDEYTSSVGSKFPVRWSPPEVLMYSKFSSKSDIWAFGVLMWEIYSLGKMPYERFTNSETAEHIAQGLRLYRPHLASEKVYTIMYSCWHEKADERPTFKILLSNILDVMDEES
Activity [1] [%],Activity [2] [%],Activity [3] [%],Activity [4] [%],Activity [5] [%],Activity [6] [%],Activity [7] [%],Activity [8] [%],Activity [9] [%],Activity [10] [%],Activity [11] [%],Activity [12] [%],Activity [13] [%],Activity [14] [%],Structure (SMILES)
60,101,94,77,76,89,99,79,55,100,93,93,92,73,CNS(=O)(=O)c1ccc2c(c1)/C(=C/c1cn(C)c3ccc(OC)cc13)C(=O)N2
97,93,101,64,48,91,117,61,25,84,72,62,107,91,COc1ccc2[nH]cc(/C=C3\C(=O)Nc4ccc(S(N)(=O)=O)cc43)c2c1
79,95,92,104,71,88,100,89,37,90,92,79,93,89,COc1ccc2c(c1)c(/C=C1\C(=O)Nc3ccc(S(=O)(=O)N(C)C)cc31)cn2C
95,94,79,83,11,78,104,69,51,89,89,81,79,107,CN(C)S(=O)(=O)c1ccc2c(c1)/C(=C/c1cn(C)c3ccc(O)cc13)C(=O)N2
107,101,76,62,42,85,111,55,12,96,91,58,124,119,Cn1cc(/C=C2\C(=O)Nc3ccc(S(N)(=O)=O)cc32)c2ccccc21
100,99,99,84,50,90,106,87,38,94,91,55,113,107,COc1ccc2c(c1)c(/C=C1\C(=O)Nc3ccc(S(N)(=O)=O)cc31)cn2C
